Measurements reported in patent publication US20030199476A1, “Medicament for the stimulation of leucopoiesis and treatment of tumour and protozoan diseases acarinosis and arthropod-borne diseases and a method for production thereof” (priority 2000, published 2003).
Where two headings read alike, the source gives them in different places.

Key:
Toxicity tests = assay type: in vivo; settings: rats/mice; form not stated
Text: (§1) Toxicity and Activity Tests

[1] = Activity tests: necessary administration quantities; assay type: in vivo; settings: Form: Free (oral); rats/mice
Text: as §1

[2] = tested on: Entamoeba histolytica HM-1:IMSS; assay: Cytotoxicity of alkylphosphocholines on amebae (Trypan blue count, Probit); assay type: cell-based; settings: strain HM-1:IMSS, read-out: ED50 (the source's name)
Description: (§2) Entamoeba histolytica SFL-3 and HM-1: IMSS (American Type Culture collection, order number ATCC 30459), pathogenic amebae of zymodeme II, were cultured, at 37° C., in TYI-S-33 medium (Diamond et al., Trans. Roy. Soc. Trop. Med. Hyg. 72: 431-432 (1978)) containing 10% bovine serum. The cultures of SFL-3 were kept in 100 ml glass bottles while the cultures of HM-1:IMSS were kept in 50 ml tissue culture flasks.
(§3) 38 h cultures of E histolytica were used for measuring the cytotoxicity of the alkylphosphocholines. The amebae were released from the culture vessels by shaking, centrifuged down for 3 min at 2 000 revolutions per minute and 4° C. in a Heraeus Minifuge RF, resuspended in 20 ml of TYI-S-33 medium and counted in a hemocytometer chamber.
(§4) For each measurement, in each case 8-10×10^5 amebae were provided in 12 ml of medium in Pyrex tubes fitted with a screw closure and the alkylphosphocholine was added in a volume of 660 μl. […] (w/v) ethanol in double-distilled water was used for dissolving hexadecylphosphocholine and octadecylphosphocholine, while double-distilled water on its own was used for all the other substances and the liposomal preparations. 5% ethanol or double-distilled water was correspondingly added to the control cultures. The concentrations of alkylphosphocholines employed were 100 μM, 50 μM, 20 μM, 10 μM and 5 μM. Six cultures were in each case prepared for each of the concentrations.
(§5) The effect of the alkylphosphocholines was determined after 24 h and after 48 h. For this, in each case three of the cultures were shaken up and transferred into in each case three plastic centrifuge tubes. The amebae were centrifuged down for 5 min at 2 200 rpm and 4° C. and suspended in a final volume of 1 ml in a 1:1 mixture of Trypan blue (Sigma) and PBS. Each of the samples was then counted in the hemocytometer and the number of living and dead, stained blue due to having taken up the die, amebae was recorded.
(§6) The results were analyzed using the “Probit” program (Wernsdorfer and Wernsdorfer, Mitt. Österr. Ges. Tropenmed. Parasitol. 17:221-228 (1995)).
(§7) The tests were carried out as described above. The E. histolytica strains SFL-3 and HM-1:IMSS were tested. In each case six cultures were prepared for each concentration of alkylphosphocholine in pure or liposomal form. Three of the cultures were counted after […] and three further cultures were counted after 48 h. In each case two independent experiments were carried out for each of the two strains.

[3] = tested on: Entamoeba histolytica SFL-3; assay: as above; assay type: cell-based; settings: read-out: ED50 (the source's name)
Description: as §2, §3, §4, §5, §6, §7

SMILES	Toxicity (Toxicity tests) [µmol]	Necessary administration quantities [1] [µmol]	EC50 ([2]; day 1 (24 h)) [µM]	EC50 ([2]; day 2 (48 h)) [µM]	EC50 ([3]; strain SFL-3, day 1 (24 h)) [µM]	EC50 ([3]; strain SFL-3, day 2 (48 h)) [µM]
CCCCCCCCCCCCCCCCOP(=O)([O-])OCC[N+](C)(C)C [APC 1, hexadecylphosphocholine]	90	60	94	83	88	50
CCCCCCCCCCCCCCCCCCOP(=O)([O-])OCC[N+](C)(C)C [APC 2, octadecylphosphocholine]	–	–	80	70	36	24
CCCCCCCC/C=C\CCCCCCCCOP(=O)([O-])OCC[N+](C)(C)C [APC 9, oleylphosphocholine]	–	20	121	80	32	16
CCCCCCCC/C=C\CCCCCCCCCOP(=O)([O-])OCC[N+](C)(C)C [APC 10, (Z)-10-nonadecenylphosphocholine]	–	–	112	87	24	20
CCCCCCCC/C=C\CCCCCCCCCCCCOP(=O)([O-])OCC[N+](C)(C)C [Erucyl-PC]	–	100	–	–	–	–
CCCCCCCCCCCCCCCCCCCOP(=O)([O-])OCC[N+](C)(C)C [Nonadecyl-PC]	–	20	–	–	–	–
